Laboratory results published in US9150902B2, “Method for determination of N-deacetylase/N-sulfotransferase activity” (SEIKAGAKU CORPORATION, priority 2005, dated 2015).

Key:
[1] = biological target: T1, NDST2 (ND activity) (Homo sapiens, UniProt P52849); experiment: Screening of ND activity inhibitors using the plate to which NAH-biotin was adhered via avidin (JM403 ELISA); format: biochemical; conditions: final concentration 100, 10 or 1 μg/ml; for ranking of ability to inhibit ND activity among NAH, HP, NSDS-HP and HSBK: FIG. 8; for function to inhibit ND activity (rate of change, FIG. 8): NDST enzyme liquid 80 times diluted, 37° C. 60 minutes
T1 construct: baculovirus gp67 signal peptide (39 amino acids) (N, cleaved yes); made in house; host or cells: Sf21 insect cells infected with recombinant baculovirus (virus stock made in Sf9)
T1 sequence (P52849 79-883): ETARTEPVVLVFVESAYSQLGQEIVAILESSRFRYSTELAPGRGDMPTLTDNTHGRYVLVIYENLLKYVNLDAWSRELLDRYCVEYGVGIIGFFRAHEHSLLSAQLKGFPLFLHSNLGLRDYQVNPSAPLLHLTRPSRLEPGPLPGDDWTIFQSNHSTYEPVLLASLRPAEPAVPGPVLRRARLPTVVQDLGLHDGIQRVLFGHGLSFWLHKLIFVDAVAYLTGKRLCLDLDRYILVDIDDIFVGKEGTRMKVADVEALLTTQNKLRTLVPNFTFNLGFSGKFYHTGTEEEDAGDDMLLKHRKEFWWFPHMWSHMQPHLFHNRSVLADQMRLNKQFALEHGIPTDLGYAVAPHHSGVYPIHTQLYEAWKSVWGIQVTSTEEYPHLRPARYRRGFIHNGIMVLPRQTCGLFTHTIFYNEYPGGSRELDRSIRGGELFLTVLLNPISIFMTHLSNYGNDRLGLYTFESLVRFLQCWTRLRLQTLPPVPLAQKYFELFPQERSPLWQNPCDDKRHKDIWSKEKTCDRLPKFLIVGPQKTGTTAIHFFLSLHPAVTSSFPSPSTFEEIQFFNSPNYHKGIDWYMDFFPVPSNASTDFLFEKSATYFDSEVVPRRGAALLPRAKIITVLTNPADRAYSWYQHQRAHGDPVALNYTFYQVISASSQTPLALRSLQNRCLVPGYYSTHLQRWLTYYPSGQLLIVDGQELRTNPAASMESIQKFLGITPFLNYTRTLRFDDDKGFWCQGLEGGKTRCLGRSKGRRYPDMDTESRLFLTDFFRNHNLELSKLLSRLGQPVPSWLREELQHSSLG
Description: Each of the following 6 substances to be tested was diluted to 200, 20 or 2 μg/ml using the enzyme reaction liquid 1. Quickly after addition of 25 μl of the solutions to each well of the solid phase (plate) produced in Example 9, 25 μl of an “NDST enzyme liquid diluted 40 times with the enzyme reaction liquid I” was added to each well (final concentration of each substance to be tested 100, 10 or 1 μg/ml, final dilution rate of the enzyme liquid 80 times).
Thereafter, the enzyme reaction was effected by standing still at 37° C. for 60 minutes. In this connection, the enzyme reaction liquid 1 alone was added to the wells to which the substances to be tested were not added.
After completion of the reaction, the wells were washed three times with T-TBS and 100 μl of a solution of the monoclonal antibody JM403 (Seikagaku Corporation) adjusted to 1 μg/ml with TBS was added to each well. Thereafter, the plate was allowed to stand still at ordinary temperature (15 to 25° C.) for 60 minutes to undergo the antigen-antibody reaction. After the reaction, the wells were washed three times with T-TBS, and 100 μl of the HRP-labeled goat anti-mouse immunoglobulin G+M antibody diluted 20000 times with TBS was added to each well. Thereafter, the plate was allowed to stand still at ordinary temperature for 60 minutes to undergo the antigen-antibody reaction.
After the reaction, this plate was washed three times with T-TBS, and 100 μl of the TMB solution was added to each well and allowed to undergo the reaction at ordinary temperature for 30 minutes to develop a color. Thereafter, the reaction was terminated by adding 100 μl of the reaction terminating liquid to each well, and then the absorbance was measured by the same method described in Example 5. Also, the rate of change (%) was calculated by the following calculation formula. Rate of change(%)=100×((the value of absorbance when each substance to be tested is not added)−(the value of absorbance when each substance to be tested at respective concentration is added))/(the value of absorbance when each substance to be tested is not added).
In this connection, since the monoclonal antibody JM403 binds to the GlcN residues in NAH (that is, de-N-acetylated GlcNAc residue), higher value of the detected absorbance means that the number of GlcN residues in NAH is larger (that is, the number of de-N-acetylated GlcNAc residues is larger), namely the ND activity is higher. On the contrary, lower value of the detected absorbance means that the number of GlcN residues in NAH is smaller (that is, the number of de-N-acetylated GlcNAc residues is smaller), namely the ND activity is low.
Additionally, when a substance to be tested inhibits ND activity, the aforementioned rate of change (%) becomes a positive number. Also, higher value of the rate of change means higher ability of the substance to be tested to inhibit ND.

[2] = system: monoclonal antibody F58-10E4; experiment: Inhibition method: monoclonal antibody F58-10E4 binding to HSBK-adhered plate in presence of N-sulfated heparosan; conditions: 20 μg/well; F58-10E4 1 μg/mL; lot as prepared
Description: A polysaccharide in which biotin is bound to the reducing end of HSBK was prepared using HSBK instead of NAH and in accordance with the method described in Example 1(3). Next, this was adhered to a plate in accordance with the method described in Example 9.
The monoclonal antibody F58-10E4 (final concentration: 1 μg/mL) and the 9 lots of N-sulfated heparosan (20 μg/well; a value corrected based on the uronic acid content obtained by the carbazole method) were added to the plate to which HSBK was adhered to effect the antigen-antibody reaction under the conditions described in Example 7, and the absorbance was measured by the method described in Example 7. This is a measurement by a so-called inhibition method. When concentration of the N-sulfated heparosan in the antigen-antibody reaction liquid is 0, substantially all of the monoclonal antibody F58-10E4 binds to the adhered HSBK and the detected absorbance becomes high.
By regarding the absorbance when concentration of the N-sulfated heparosan in the antigen-antibody reaction liquid is 0 as “inhibition rate 0%”, and the absorbance when excess concentration of N-sulfated heparosan is present in the antigen-antibody reaction liquid as “inhibition rate 100%”, the inhibition ratio was calculated on the 9 lots of N-sulfated heparosan. […]
The inhibition rates of these substances were also calculated in the same manner. […]

| Substance | ranking of ability to inhibit ND activity among NAH, HP, NSDS-HP and HSBK [1] | function to inhibit ND activity (rate of change, FIG. 8) [1] | Inhibition rate (%) No treatment [2] [%] |
| --- | --- | --- | --- |
| Bovine kidney-derived HS [HSBK] | highest ability to inhibit ND activity | inhibit ND activity concentration-dependently | 99 |
| Cockscomb-derived hyaluronic acid [HA] | – | hardly possessed of the function to inhibit ND activity | – |
| N-acetyl heparosan [NAH] | lowest ability to inhibit ND activity | inhibit ND activity concentration-dependently | – |
| N-sulfated/completely de-O-sulfated HP [NSDS-HP] | – | inhibit ND activity concentration-dependently | – |
| Partially de-N-acetylated NAH [PDNAC-NAH] | – | hardly possessed of the function to inhibit ND activity | – |
| Swine small intestine-derived HP | – | inhibit ND activity concentration-dependently | – |
